How the values were obtained:
murine epidermis [1] = assay: Epidermal DNA synthesis, [3H]-thymidine incorporation in vivo; set-up: species or system mouse; settings: CBE 750 nmol/5cm^2/day, five days; FIG. 17
murine epidermis [2] = assay: Total epidermal DNA content after topical CBE; type: in vivo, mouse
Experimental: In addition to measuring DNA synthesis by [^3H]-thymidine incorporation, total epidermal DNA content was determined after applications of CBE. 100 μl of epidermal homogenate was obtained from mice and stored at −70° C. Samples were diluted with Hoechst buffer (pH 7.4) in duplicate. Each sample was brought up to 1 ml with Hoechst buffer. 1 ml of bisbenzimadazole (diluted 1:1000 with dist H2O) was added and samples were vortexed. Standards were prepared using 134 μg/ml calf thymus DNA diluted 1:10 with Hoechst buffer. Final concentration of DNA ranged from 0.067 to 0.335 μg. All samples and standards were covered for 2 hours and absorbance at […] was determined (LaBarca, C. and Paigan (1980) Anal. Biochem. 102:344-352).

hairless mouse epidermis = assay: Epidermal / stratum corneum lipid content (HPTLC/TLC); type: in vivo
Experimental: Hairless mice were treated with BrCBE for 5 days as described in Example 10. The following high performance thin layer chromatograph (HPTLC) system was developed for optimal separation of ceramides and glucosylceramides for quantitation by spectrodensitometry. Extracts were applied to precleaned 10 ×20 cm HPTLC plates, 0.5 cm from lower edge of the plate and fractionated sequentially in a horizontal developmental chamber (Camag, Muttenz, Switzerland) in the following solvent systems: 1) chloroform:methanol:acetic acid (190:9:1), v/v/v) to the top, twice; 2) chloroform:methanol:acetone (76:20:4, by volume) to 30 mm. Between each development, the plate was dried for 5 minutes on a hot plate (40° C.), cooled for 2 minutes, and equilibrated in the tank with the solvents for 3 minutes. After final development, the plates were dried, cooled, dipped in charring solution (1.5% cupric sulfate in acetic acid:sulfuric acid:orthophosphoric acid:water (50:10:10:30, by volume) for 15 seconds, dried (40° .C) for 5 minutes, and then charred at 180° C. for 15 minutes. Plates were scanned with a variable wavelength scanning densitometer (Camag, Muttenz, Switzerland). Lipid amounts for each fraction were estimated using ceramides 3 and 4, and galactosylceramides 1 and 2 as reference standards (Sigma Chemical Co., St. Louis, Mo.).
The epidermal glucosylceramide content was determined in mice treated with the topical β-glucocerebrosidase inhibitors. Mice were treated with CBE for one day as described in FIG. 22. The mice were sacrificed and whole skin was excised. Subcutaneous fascia and fat were scraped off, and the samples were placed dermis side down onto […] EDTA in PBS-CMF (pH 7.4) and incubated at 37° C. for 40 min. Skin was blotted dry with a tissue and the epidermis was removed by scraping with a surgical blade. The epidermis was minced, placed into microcentrifuge vials, immediately snap frozen and stored in liquid N2 until extracted.
For extraction the tissue was soaked in 7.6 ml Bligh/Dyer extraction media (2 ml chloroform, 4 ml Methanol, 1.6 ml H2O) overnight at room temperature. The following day the tissue was shaken for 20 min. and centrifuged for 10 min. the solvent was removed and the pellet was combined with 7.6 ml Bligh/Dyer media and again shaken and centrifuged. The solvents were combined with solvent from the soaks and filtered through pre-solvent-washed Whatman 43 filter paper, 2 ml chloroform and 2 ml H2O was added to each 7.6 ml quantity of the filtrate and shaken for 10 min. The samples were then centrifuged and the upper phase discarded. The lower phase was washed with 4 ml chloroform, 4 ml MetOH, and 3.6 ml H2O (shaken for 10 min and centrifuged). The upper phase was discarded. The lower phase was dried under N2 in a 47° C. water bath. The lipid was resuspended in chloroform and weighed on the Cahn balance.
TLC was performed using 15-20 μg samples and quantitated against standard glycosylceramide and 40 μg sample for sphingolipids (Holleran, W. M. et al. (1993) J. Clin. Invest. 91:1656-1664).
Both glucosylceramide and ceramide content was then determined in lower (stratum basale) and upper (stratum spinosum, stratum granulosum and stratum corneum) epidermis (FIG. 23). Following 24 hours of CBE treatment samples were excised following treatment (as in Example 16).

[3] = one day of CBE treatment, FIG. 23

Question: Which results are given for `O[C@H]1[C@H](O)[C@@H](O)[C@@H]2O[C@@H]2[C@@H]1O` (racemic) [CBE, conduritol-B-epoxide]?
Answer: proliferative index, CBE-treated over control epidermis ([3H]-thymidine incorporation) (murine epidermis [1]): approximately 1.6; DNA concentration, higher than untreated samples (murine epidermis [2]; 24 hours following CBE treatment, FIG. 20 & 21): 6-81%; DNA concentration, higher than untreated samples (murine epidermis [2]; 3 days of CBE-treatment, FIG. 19): 45-113%; DNA concentration, higher than untreated skin samples (murine epidermis [2]; 5 days of CBE-treatment, FIG. 18): 46-331%; level of glucosylceramide, higher in treated samples (hairless mouse epidermis; 20 μl of 250 nmol/μl CBE tid x5d, 250 mm^2 skin sample): 34-147%; level of glucosylceramide, higher in treated samples (hairless mouse epidermis; 40 μl of 250 nmol/μl CBE tid x3d, 500 mm^2 skin sample): 57-152%; epidermal glucosylceramide content (hairless mouse epidermis; one day of CBE application, FIG. 22): invariably increased; ceramide levels of upper and lower epidermis (hairless mouse epidermis; [3]): not significantly altered; glucosylceramide content of upper and lower epidermis (hairless mouse epidermis; [3]): significant increase
